Consider 4 molecules from PubChem BioAssay AID2060508 (Molecular Pharmacology Branch, DTP, NCI, 2025).
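Also: spheroids exposed to compounds for seven days; 100% = DMSO vehicle control viability.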

The subject of one assay is 454973-116-R2-J3-PDC spheroids, viability, % test/control. The assay can be described thus: Anticancer human tumor 454973-116-R2-J3-PDC patient-derived pancreatic carcinoma cell line growth inhibition [GQUAD]. The following applies: second compound 0.316 µM; first compound 1 µM; stronger effect = lower value; spheroids with HUVEC and MSC. The gist of the method:
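Tumor cells were grown as complex spheroids with HUVEC endothelial cells and mesenchymal stem cells as stroma. G-quadruplex stabilizers were combined with targeted agents over half-log dilutions from near the clinical Cmax, or from 10 microM.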
As usually defined, the viability, T/C is the ratio of treated to control. Turning to `C=CCn1c(=O)c2cnc(Nc3ccc(N4CCN(C)CC4)cc3)nc2n1-c1cccc(C(C)(C)O)n1` + CN(C)c1ccc(Nc2c3ccc(NC(=O)CCN4CCCC4)cc3nc3cc(NC(=O)CCN4CCCC4)ccc23)cc1, the viability, T/C was 15.8%.

Regarding `CC(C)(O)C1CCC(Nc2ccc3ncc(-c4cccc(C(F)(F)F)c4)n3n2)CC1` (configuration not stated) + CN(C)c1ccc(Nc2c3ccc(NC(=O)CCN4CCCC4)cc3nc3cc(NC(=O)CCN4CCCC4)ccc23)cc1, the viability, T/C was 62.9%.

With `COc1ncnc(C2CC2)c1-c1ncc2cnn(Cc3ccc(-c4nc(C(F)(F)F)cn4C(C)C)cc3)c2n1` + CN(C)c1ccc(Nc2c3ccc(NC(=O)CCN4CCCC4)cc3nc3cc(NC(=O)CCN4CCCC4)ccc23)cc1, the viability, T/C is 101%.

Take `O=C(NO)c1cnc(N2CCN(S(=O)(=O)c3ccc4ccccc4c3)CC2)nc1` + CN(C)c1ccc(Nc2c3ccc(NC(=O)CCN4CCCC4)cc3nc3cc(NC(=O)CCN4CCCC4)ccc23)cc1: the viability, T/C is 3.25%.

Staying with this assay, now noted: second compound 0.316 µM; first compound 3.16 µM; stronger effect = lower value; spheroids with HUVEC and MSC.
On to `C=CCn1c(=O)c2cnc(Nc3ccc(N4CCN(C)CC4)cc3)nc2n1-c1cccc(C(C)(C)O)n1` + CN(C)c1ccc(Nc2c3ccc(NC(=O)CCN4CCCC4)cc3nc3cc(NC(=O)CCN4CCCC4)ccc23)cc1, for which the viability, T/C is 6.5%.

`CC(C)(O)C1CCC(Nc2ccc3ncc(-c4cccc(C(F)(F)F)c4)n3n2)CC1` (configuration not stated) + CN(C)c1ccc(Nc2c3ccc(NC(=O)CCN4CCCC4)cc3nc3cc(NC(=O)CCN4CCCC4)ccc23)cc1: the viability, T/C was 23.3%.

For `COc1ncnc(C2CC2)c1-c1ncc2cnn(Cc3ccc(-c4nc(C(F)(F)F)cn4C(C)C)cc3)c2n1` + CN(C)c1ccc(Nc2c3ccc(NC(=O)CCN4CCCC4)cc3nc3cc(NC(=O)CCN4CCCC4)ccc23)cc1, the viability, T/C is 91.6%.

Regarding `O=C(NO)c1cnc(N2CCN(S(=O)(=O)c3ccc4ccccc4c3)CC2)nc1` + CN(C)c1ccc(Nc2c3ccc(NC(=O)CCN4CCCC4)cc3nc3cc(NC(=O)CCN4CCCC4)ccc23)cc1, the viability, T/C is 0.11%.

Staying with this assay, now noted: second compound 0.316 µM; first compound 10 µM; stronger effect = lower value; spheroids with HUVEC and MSC.
As to `C=CCn1c(=O)c2cnc(Nc3ccc(N4CCN(C)CC4)cc3)nc2n1-c1cccc(C(C)(C)O)n1` + CN(C)c1ccc(Nc2c3ccc(NC(=O)CCN4CCCC4)cc3nc3cc(NC(=O)CCN4CCCC4)ccc23)cc1, the viability, T/C is 9.33%.

For `CC(C)(O)C1CCC(Nc2ccc3ncc(-c4cccc(C(F)(F)F)c4)n3n2)CC1` (configuration not stated) + CN(C)c1ccc(Nc2c3ccc(NC(=O)CCN4CCCC4)cc3nc3cc(NC(=O)CCN4CCCC4)ccc23)cc1, the viability, T/C is 33.2%.

With `COc1ncnc(C2CC2)c1-c1ncc2cnn(Cc3ccc(-c4nc(C(F)(F)F)cn4C(C)C)cc3)c2n1` + CN(C)c1ccc(Nc2c3ccc(NC(=O)CCN4CCCC4)cc3nc3cc(NC(=O)CCN4CCCC4)ccc23)cc1, the viability, T/C was 90.6%.

`O=C(NO)c1cnc(N2CCN(S(=O)(=O)c3ccc4ccccc4c3)CC2)nc1` + CN(C)c1ccc(Nc2c3ccc(NC(=O)CCN4CCCC4)cc3nc3cc(NC(=O)CCN4CCCC4)ccc23)cc1: the viability, T/C is 0.17%.

Staying with this assay, now noted: second compound 1 µM; first compound 0.0316 µM; stronger effect = lower value; spheroids with HUVEC and MSC.
Regarding `C=CCn1c(=O)c2cnc(Nc3ccc(N4CCN(C)CC4)cc3)nc2n1-c1cccc(C(C)(C)O)n1` + CN(C)c1ccc(Nc2c3ccc(NC(=O)CCN4CCCC4)cc3nc3cc(NC(=O)CCN4CCCC4)ccc23)cc1, the viability, T/C is 82.9%.

With `CC(C)(O)C1CCC(Nc2ccc3ncc(-c4cccc(C(F)(F)F)c4)n3n2)CC1` (configuration not stated) + CN(C)c1ccc(Nc2c3ccc(NC(=O)CCN4CCCC4)cc3nc3cc(NC(=O)CCN4CCCC4)ccc23)cc1, the viability, T/C was 87.9%.

As for `COc1ncnc(C2CC2)c1-c1ncc2cnn(Cc3ccc(-c4nc(C(F)(F)F)cn4C(C)C)cc3)c2n1` + CN(C)c1ccc(Nc2c3ccc(NC(=O)CCN4CCCC4)cc3nc3cc(NC(=O)CCN4CCCC4)ccc23)cc1, the viability, T/C is 96.3%.

With `O=C(NO)c1cnc(N2CCN(S(=O)(=O)c3ccc4ccccc4c3)CC2)nc1` + CN(C)c1ccc(Nc2c3ccc(NC(=O)CCN4CCCC4)cc3nc3cc(NC(=O)CCN4CCCC4)ccc23)cc1, the viability, T/C was 81.4%.

The assay is the same for the next values; noted with them: second compound 1 µM; first compound 0.1 µM; stronger effect = lower value; spheroids with HUVEC and MSC.
For `C=CCn1c(=O)c2cnc(Nc3ccc(N4CCN(C)CC4)cc3)nc2n1-c1cccc(C(C)(C)O)n1` + CN(C)c1ccc(Nc2c3ccc(NC(=O)CCN4CCCC4)cc3nc3cc(NC(=O)CCN4CCCC4)ccc23)cc1, the viability, T/C was 89.5%.

As to `CC(C)(O)C1CCC(Nc2ccc3ncc(-c4cccc(C(F)(F)F)c4)n3n2)CC1` (configuration not stated) + CN(C)c1ccc(Nc2c3ccc(NC(=O)CCN4CCCC4)cc3nc3cc(NC(=O)CCN4CCCC4)ccc23)cc1, the viability, T/C is 92%.

In the case of `COc1ncnc(C2CC2)c1-c1ncc2cnn(Cc3ccc(-c4nc(C(F)(F)F)cn4C(C)C)cc3)c2n1` + CN(C)c1ccc(Nc2c3ccc(NC(=O)CCN4CCCC4)cc3nc3cc(NC(=O)CCN4CCCC4)ccc23)cc1, the viability, T/C was 96.2%.

Turning to `O=C(NO)c1cnc(N2CCN(S(=O)(=O)c3ccc4ccccc4c3)CC2)nc1` + CN(C)c1ccc(Nc2c3ccc(NC(=O)CCN4CCCC4)cc3nc3cc(NC(=O)CCN4CCCC4)ccc23)cc1, the viability, T/C was 77.2%.

Still in this assay, the particulars now being: second compound 1 µM; first compound 0.316 µM; stronger effect = lower value; spheroids with HUVEC and MSC.
Regarding `C=CCn1c(=O)c2cnc(Nc3ccc(N4CCN(C)CC4)cc3)nc2n1-c1cccc(C(C)(C)O)n1` + CN(C)c1ccc(Nc2c3ccc(NC(=O)CCN4CCCC4)cc3nc3cc(NC(=O)CCN4CCCC4)ccc23)cc1, the viability, T/C was 55.6%.

`CC(C)(O)C1CCC(Nc2ccc3ncc(-c4cccc(C(F)(F)F)c4)n3n2)CC1` (configuration not stated) + CN(C)c1ccc(Nc2c3ccc(NC(=O)CCN4CCCC4)cc3nc3cc(NC(=O)CCN4CCCC4)ccc23)cc1: the viability, T/C was 84.5%.

Turning to `COc1ncnc(C2CC2)c1-c1ncc2cnn(Cc3ccc(-c4nc(C(F)(F)F)cn4C(C)C)cc3)c2n1` + CN(C)c1ccc(Nc2c3ccc(NC(=O)CCN4CCCC4)cc3nc3cc(NC(=O)CCN4CCCC4)ccc23)cc1, the viability, T/C was 101%.

On to `O=C(NO)c1cnc(N2CCN(S(=O)(=O)c3ccc4ccccc4c3)CC2)nc1` + CN(C)c1ccc(Nc2c3ccc(NC(=O)CCN4CCCC4)cc3nc3cc(NC(=O)CCN4CCCC4)ccc23)cc1, for which the viability, T/C was 30.3%.

Staying with this assay, now noted: second compound 1 µM; first compound 1 µM; stronger effect = lower value; spheroids with HUVEC and MSC.
Turning to `C=CCn1c(=O)c2cnc(Nc3ccc(N4CCN(C)CC4)cc3)nc2n1-c1cccc(C(C)(C)O)n1` + CN(C)c1ccc(Nc2c3ccc(NC(=O)CCN4CCCC4)cc3nc3cc(NC(=O)CCN4CCCC4)ccc23)cc1, the viability, T/C was 11.3%.

In the case of `CC(C)(O)C1CCC(Nc2ccc3ncc(-c4cccc(C(F)(F)F)c4)n3n2)CC1` (configuration not stated) + CN(C)c1ccc(Nc2c3ccc(NC(=O)CCN4CCCC4)cc3nc3cc(NC(=O)CCN4CCCC4)ccc23)cc1, the viability, T/C was 55.8%.

In the case of `COc1ncnc(C2CC2)c1-c1ncc2cnn(Cc3ccc(-c4nc(C(F)(F)F)cn4C(C)C)cc3)c2n1` + CN(C)c1ccc(Nc2c3ccc(NC(=O)CCN4CCCC4)cc3nc3cc(NC(=O)CCN4CCCC4)ccc23)cc1, the viability, T/C is 106%.

With `O=C(NO)c1cnc(N2CCN(S(=O)(=O)c3ccc4ccccc4c3)CC2)nc1` + CN(C)c1ccc(Nc2c3ccc(NC(=O)CCN4CCCC4)cc3nc3cc(NC(=O)CCN4CCCC4)ccc23)cc1, the viability, T/C was 3.47%.

The same assay, now with this note: second compound 1 µM; first compound 3.16 µM; stronger effect = lower value; spheroids with HUVEC and MSC.
Regarding `C=CCn1c(=O)c2cnc(Nc3ccc(N4CCN(C)CC4)cc3)nc2n1-c1cccc(C(C)(C)O)n1` + CN(C)c1ccc(Nc2c3ccc(NC(=O)CCN4CCCC4)cc3nc3cc(NC(=O)CCN4CCCC4)ccc23)cc1, the viability, T/C was 7.68%.

Consider `CC(C)(O)C1CCC(Nc2ccc3ncc(-c4cccc(C(F)(F)F)c4)n3n2)CC1` (configuration not stated) + CN(C)c1ccc(Nc2c3ccc(NC(=O)CCN4CCCC4)cc3nc3cc(NC(=O)CCN4CCCC4)ccc23)cc1, for which the viability, T/C is 22.6%.

For `COc1ncnc(C2CC2)c1-c1ncc2cnn(Cc3ccc(-c4nc(C(F)(F)F)cn4C(C)C)cc3)c2n1` + CN(C)c1ccc(Nc2c3ccc(NC(=O)CCN4CCCC4)cc3nc3cc(NC(=O)CCN4CCCC4)ccc23)cc1, the viability, T/C is 94.2%.

As for `O=C(NO)c1cnc(N2CCN(S(=O)(=O)c3ccc4ccccc4c3)CC2)nc1` + CN(C)c1ccc(Nc2c3ccc(NC(=O)CCN4CCCC4)cc3nc3cc(NC(=O)CCN4CCCC4)ccc23)cc1, the viability, T/C is 0.09%.

The assay is the same for the next values; noted with them: second compound 1 µM; first compound 10 µM; stronger effect = lower value; spheroids with HUVEC and MSC.
As to `C=CCn1c(=O)c2cnc(Nc3ccc(N4CCN(C)CC4)cc3)nc2n1-c1cccc(C(C)(C)O)n1` + CN(C)c1ccc(Nc2c3ccc(NC(=O)CCN4CCCC4)cc3nc3cc(NC(=O)CCN4CCCC4)ccc23)cc1, the viability, T/C is 9.81%.

Take `CC(C)(O)C1CCC(Nc2ccc3ncc(-c4cccc(C(F)(F)F)c4)n3n2)CC1` (configuration not stated) + CN(C)c1ccc(Nc2c3ccc(NC(=O)CCN4CCCC4)cc3nc3cc(NC(=O)CCN4CCCC4)ccc23)cc1: the viability, T/C is 30.5%.

Regarding `COc1ncnc(C2CC2)c1-c1ncc2cnn(Cc3ccc(-c4nc(C(F)(F)F)cn4C(C)C)cc3)c2n1` + CN(C)c1ccc(Nc2c3ccc(NC(=O)CCN4CCCC4)cc3nc3cc(NC(=O)CCN4CCCC4)ccc23)cc1, the viability, T/C is 97.1%.

As for `O=C(NO)c1cnc(N2CCN(S(=O)(=O)c3ccc4ccccc4c3)CC2)nc1` + CN(C)c1ccc(Nc2c3ccc(NC(=O)CCN4CCCC4)cc3nc3cc(NC(=O)CCN4CCCC4)ccc23)cc1, the viability, T/C was 0.35%.

The same assay, now with this note: second compound 3.16 µM; first compound 0.0316 µM; stronger effect = lower value; spheroids with HUVEC and MSC.
Take `C=CCn1c(=O)c2cnc(Nc3ccc(N4CCN(C)CC4)cc3)nc2n1-c1cccc(C(C)(C)O)n1` + CN(C)c1ccc(Nc2c3ccc(NC(=O)CCN4CCCC4)cc3nc3cc(NC(=O)CCN4CCCC4)ccc23)cc1: the viability, T/C was 85.2%.

With `CC(C)(O)C1CCC(Nc2ccc3ncc(-c4cccc(C(F)(F)F)c4)n3n2)CC1` (configuration not stated) + CN(C)c1ccc(Nc2c3ccc(NC(=O)CCN4CCCC4)cc3nc3cc(NC(=O)CCN4CCCC4)ccc23)cc1, the viability, T/C was 85.8%.

As to `COc1ncnc(C2CC2)c1-c1ncc2cnn(Cc3ccc(-c4nc(C(F)(F)F)cn4C(C)C)cc3)c2n1` + CN(C)c1ccc(Nc2c3ccc(NC(=O)CCN4CCCC4)cc3nc3cc(NC(=O)CCN4CCCC4)ccc23)cc1, the viability, T/C is 86.2%.

For `O=C(NO)c1cnc(N2CCN(S(=O)(=O)c3ccc4ccccc4c3)CC2)nc1` + CN(C)c1ccc(Nc2c3ccc(NC(=O)CCN4CCCC4)cc3nc3cc(NC(=O)CCN4CCCC4)ccc23)cc1, the viability, T/C is 77.8%.

The assay is the same for the next values; noted with them: second compound 3.16 µM; first compound 0.1 µM; stronger effect = lower value; spheroids with HUVEC and MSC.
As to `C=CCn1c(=O)c2cnc(Nc3ccc(N4CCN(C)CC4)cc3)nc2n1-c1cccc(C(C)(C)O)n1` + CN(C)c1ccc(Nc2c3ccc(NC(=O)CCN4CCCC4)cc3nc3cc(NC(=O)CCN4CCCC4)ccc23)cc1, the viability, T/C is 83.2%.

In the case of `CC(C)(O)C1CCC(Nc2ccc3ncc(-c4cccc(C(F)(F)F)c4)n3n2)CC1` (configuration not stated) + CN(C)c1ccc(Nc2c3ccc(NC(=O)CCN4CCCC4)cc3nc3cc(NC(=O)CCN4CCCC4)ccc23)cc1, the viability, T/C was 82.7%.
